Row | Structure (SMILES) | melting point [°C]
1 | Fc1cc(-c2ncon2)ccc1CBr | 87.3
2 | CSc1c(C(N)=S)nn(-c2c(Cl)cc(C(F)(F)F)cc2Cl)c1N | 161
3 | N#Cc1n[nH]c2nc(N3CCCNCC3)ccc12 | 196 to 197
4 | Cc1[nH]c(=O)c2c(ccc3nc(Nc4c(Cl)cccc4Cl)n(C)c32)c1CC(=O)N1CCOCC1 | > 300
5 | NC(=O)Cc1c(C(=O)c2ccccc2)[nH]c2cc(Cl)ccc12 | 234 to 237
6 | CN1CCN(c2ccc(Nc3cc(-c4cccc(N5Cc6cc(C(C)(C)C)ccc6C5=O)c4CO)cn(C)c3=O)nn2)CC1 | 171 to 172
7 | CCOC(CBr)(OCC)c1csc(NC(=N)N)n1 | 157 to 158
8 | CN(C)c1ccc(-c2cnc(N)c([N+](=O)[O-])c2)cc1 | 212
9 | Cn1nc2ccc(OCCCN3CCC(OC(c4ccccc4)c4ccccc4)CC3)nn2c1=O | 139 to 140
10 | COc1ccc(-c2ccc(C#N)o2)cc1C(F)(F)F | 61 to 64
11 | CSc1ncc(F)c(NCc2ccccc2F)n1 | 144 to 146
12 | COc1ccc(-c2nc3ccc(-n4cncn4)cc3[nH]2)cc1OC(C)C | 118 to 126
13 | CC(C)(C)OC(=O)NC1CCCOCC=CC2CC2(C(=O)NS(=O)(=O)C2CC2)NC(=O)C2CC(OC(=O)C3CCCCC3)CN2C1=O (stereo unspecified) | 128 to 130
14 | CC(C(=O)c1ccc2[nH]ccc2c1)N1CCC(O)(c2ccccc2)CC1 (stereo unspecified) | 60 to 70
15 | O=c1ccn(-c2cccc(C(F)(F)F)c2)nc1-c1ccoc1-c1ccccc1 | 159 to 163
16 | CC(C)(CO)c1ccc(C(=O)Nc2cn3cc(-n4ccnc4)ccc3n2)cc1 | 278 to 280
17 | CCCc1nc2c(N)nc3cc(Oc4ccccc4C#N)ccc3c2n1CC(C)C | 230 to 232
18 | CN(C(=O)Nc1c(F)cc(F)cc1CCc1cc(C(C)(C)C)c(O)c(C(C)(C)C)c1)C1CCN(Cc2ccccc2)CC1 | 187 to 191
19 | O=S(=O)(NC=NCCCOc1cccc(CN2CCCCC2)c1)c1ccc(Cl)cc1 | 75 to 79
20 | Cc1nc2c(N)cc(S(=O)(=O)N(C)C)cc2n1C | 255 to 258
21 | O=S(=O)(NCCCCOc1ccc(-n2cnnn2)cc1)c1cccc2nsnc12 | 142 to 143
22 | COC(=O)c1cnn(C)c1C(=O)Nc1ccn2nc(-c3ccccc3)nc2c1 | 243 to 247
23 | Cc1nn(-c2cc(N)c(Cl)cc2F)c(Cl)c1Br | 113 to 116
24 | CCOc1cc(CO)ncc1C | 99 to 101
25 | CC(C)COC(=O)Nc1cc(F)cc(F)c1 | 71 to 74
26 | CS(=O)(=O)Nc1cccc(C2=Nc3ccc(-c4ccc(F)cc4)cc3NC(=O)C2)c1 | 232 to 235
27 | CS(=O)c1cc(=O)c2ccc(N3CCOCC3)cc2s1 (stereo unspecified) | 198 to 200
28 | Cc1cc(-n2ccnc2)c2cccc(OCc3c(Cl)ccc(S(=O)(=O)N4CCC[C@H]4C(=O)NCCO)c3Cl)c2n1 | 140

Row | Structure (SMILES) | melting point [°C]
29 | COc1ncccc1NC(=NC#N)NC(NC(=O)c1cc(F)cc(F)c1)C(C)(Cl)Cl (stereo unspecified) | 125 to 126
30 | CNc1nc(-c2cccc(NC(=O)c3ccc(OC)c(OC4CCCC4)c3)c2)c2cc(OC)c(OC)cc2n1 | 129 to 131
31 | CC(C)c1ccc(S(=O)(=O)n2c(Cc3ccc(C(=O)O)cc3)cc3cc(C(F)(F)F)ccc32)cc1 | 227
32 | O=[N+]([O-])c1ccc(CO)cc1OC1CCCC1 | 54
33 | c1ccc(-c2nn(CCCCCCCCc3nn[nH]n3)c(-c3ccccc3)c2-c2ccccc2)cc1 | 158 to 160
34 | CC(C(=O)O)c1ccc(C(=O)c2ccc(Br)o2)cc1 (stereo unspecified) | 108 to 110
35 | O=c1[nH]c2cc(Br)ccc2c(=O)n1Cc1ccc(I)cc1F | 303 to 304
36 | O=C(NCCO)c1cccc(-c2cccc3nc(Cc4cccc(C(F)(F)F)c4)sc23)c1 | 94 to 95
37 | CC(=O)N1CCc2c(sc(C)c2CCCCN2CCC(c3noc4cc(F)ccc34)CC2)C1 | 158 to 160
38 | Cn1c(/C=C/[N+](=O)[O-])cc2cccc(F)c21 | 153 to 156
39 | CCN(C(=O)OC(C)(C)C)n1c(C)nc(N2CCc3ccccc3CC2)c(C#N)c1=O | 86 to 88
40 | CN1CC=C(c2c[nH]c3ccc(NC(=O)c4ccc(Cl)cc4)cc23)CC1 | 224 to 226
41 | N#CCNCCNCC#N | 41 to 42
42 | NCCCCCCCC1OCC2(CO1)COC(CCCCCCCN)OC2 (stereo unspecified) | 74 to 75
43 | COCc1cccc(COC)c1C#N | 80 to 81
44 | Cc1nc(-c2ccccc2)nc(-c2ccncc2)c1N | 208 to 209
45 | N#Cc1ccc(N2CCC(CCO)C2)c2ccsc12 (stereo unspecified) | 109 to 111
46 | CCN(CC)c1cccc2nc3n(c12)CC(F)(F)CN3c1ccc(Cl)cc1Cl | 125 to 127
47 | O=C1C=CC2=C3OC=CC=C3C=CC2O1 (stereo unspecified) | 96 to 98
48 | NCC(C(=O)O)C1CCCCC1 (stereo unspecified) | 238 to 240
49 | COC(=O)c1ccc2[nH]cc(Cc3ccc(OCc4ccc5ccccc5n4)cc3)c2c1 | 179 to 180
50 | Nc1nc2ccccc2c2c1nc(CCO)n2CC1(O)CCC1 | 132 to 137
51 | CN1C2CCC1CN(c1ccc(C#Cc3ccc(N)cc3)nn1)C2 | 204 to 210
52 | O=c1cc2c(nn1-c1ccc(Cl)cc1)-c1ccccc1S(=O)(=O)CC2 | > 310
53 | COC(=O)Cc1cccc2c(=O)cc(C3=CCCCC3)oc12 | 137 to 138
54 | CCOC(=O)C1(O)C(=O)Nc2c(OC)cc(CCNC(=O)C(F)(F)F)cc21 (stereo unspecified) | 115 to 117
55 | COc1cc(C=C(Cl)Cl)nc(N)n1 | 90 to 91

The remaining lines, values ahead:

Row | melting point [°C] | Structure (SMILES)
56 | 187 to 189 | CCCCNC(=O)c1cn2nc(N3CCN(C(=O)c4ccccc4C(F)(F)F)CC3)ccc2n1
57 | 131 to 134 | Cc1ccc(-n2cccc2-c2ccc(S(N)(=O)=O)cc2)cc1
58 | 46 to 48 | CSc1nc(OC(F)F)cc(OC(F)F)n1
59 | 180 | COc1ccc(C2OC(=O)N3CC(=O)CCC23)cc1OC (stereo unspecified)
60 | 154 to 156 | COc1cc2ccccc2c(C2NCCc3ccccc32)c1O (stereo unspecified)
61 | 141 to 142 | COC(=O)C1CSC(c2cc3ccccc3[nH]2)=N1 (stereo unspecified)
62 | 156 to 158 | C[C@@H](NC(=O)OCc1ccccc1)[C@H](O)C(=O)O
63 | 290 to 292 | CC(=O)N1CCN(c2ccc(Nc3nc(N)c(C(=O)c4sccc4C)s3)cc2)CC1
64 | 46 to 47 | CCOC(=O)CCCC(=O)c1ccc(F)cc1
65 | 190 to 193 | CNCC1CCN(c2ccc(Cl)cc2NC(=O)c2csc3cncnc23)CC1
66 | 127 to 130 | COC(=O)NC(=N)C(C)C
67 | 175 to 176 | C[C@H](O)c1nnc(-c2ccc3occ(-c4ccc(S(C)(=O)=O)cc4)c3c2)o1
68 | 230 to 232 | Cn1nc(-c2ccc(C(F)(F)F)cc2)cc1C(=O)O
69 | 122 to 123 | O=C(NCc1ccccn1)c1ccnc(N2CCN(CC3CC3)C2=O)c1
70 | 122 to 124 | COc1ccc2c(c1)c(SC(C)C)c(C(N)=O)n2C
71 | 157 to 158 | COc1ccc(S(=O)(=O)N2C(=O)C(O[Si](C)(C)C)(c3ccccc3OC)c3cc(Cl)ccc32)c(OC)c1 (stereo unspecified)
72 | 155 to 157 | CCCCCCCCCCNC(=O)c1ccc(N(CC(=O)O)CC(=O)O)cc1
73 | 142 to 143 | COc1ccc(N2C(=O)CC(Cl)C2=O)cc1 (stereo unspecified)
74 | 235 to 237 | COc1ccc(-c2c3c(c(C)c4ccc(OC)cc24)C(=O)NC3)cc1
75 | 225 to 227 | Cc1nc(-n2cccc(C(=O)Nc3ccccc3)c2=O)sc1C(=O)NCc1ccccc1
76 | 162 | COc1ccc(C2=NN(c3ccc(CC(=O)O)cc3)C(=O)[C@H]3CC=CC[C@@H]23)cc1OC (relative stereo)

Row | melting point [°C] | Structure (SMILES)
77 | 255 to 256 | CCc1[nH]c(=O)[nH]c(=O)c1N1CCN(Cc2ccccc2)CC1
78 | 235 to 238 | CCOC(=O)c1cn(-c2nncs2)c2cc(F)c(F)cc2c1=O
79 | 134 to 135 | Cn1ncc(N2CCCCC2)c(-c2ccccc2C=O)c1=O
80 | 150 | CCCCCc1c(C(=O)NN2CC=CCC2)nn(-c2ccc(Cl)cc2Cl)c1-c1ccc(Cl)cc1
81 | 148 to 151 | CCN(CC)CCOc1ccc(NC(=O)CC(=O)c2ccc(-c3ccccc3)cc2)cc1Cl
82 | 199 to 200 | CC(C)n1nc(-c2sc(NC(=O)N(C)C)nc2-c2ccccc2)ccc1=O
83 | 148 to 151 | COc1ccc(/C=C2/c3cc(OC)c(OC)cc3CCN2C(=O)C2CC2)cc1OC
84 | 156 to 157 | COc1cc(O)c2c(=O)c(OC)c(-c3ccc(OCc4ccccc4)c(OC)c3)oc2c1
85 | 166 | Cc1cc(NCCO)c(N)c([N+](=O)[O-])c1
86 | 98 to 102 | CC(C)(C)OC(=O)NCCCN1CCC(CCCCNC(N)=NC(=O)c2nc(Cl)c(N)nc2N)CC1
87 | 146 to 149 | COP(=O)(COC1C=CC(n2cnc3c(N)ncnc32)O1)OC (stereo unspecified)
88 | 211 | O=C(N[C@H]1CC[C@H](CCN2CCC(c3cccc4c3CCO4)CC2)CC1)c1ccnc2ccccc12
89 | 121 to 122 | CC(Cl)c1ccccc1S(N)(=O)=O (stereo unspecified)
90 | 97 to 98 | CCCCCCCCCCCC(CC(O)C(C(=O)OC(C)(C)C)S(=O)c1ccc(C)cc1)OC1CCCCO1 (stereo unspecified)
91 | 183 | CNC(=O)NNC1=NS(=O)(=O)c2ccccc21
92 | 183 to 184 | CC(C)Oc1cc(CCC(=O)NS(=O)(=O)Cc2ccccc2)n(Cc2ccc(Cl)cc2Cl)n1
93 | 269 to 271 | O=C(O)c1ccc(OC(=O)c2ccc(O)c(C34CC5CC(CC(C5)C3)C4)c2)cc1
94 | 250 to 251 | Cc1cccc(C(=O)Nc2c[nH]nc2C(=O)NCC(C)(C)C#N)n1
95 | 135 | COc1nc(C)nc(NC(=O)NS(=O)(=O)c2ccc(Cl)nn2)n1
96 | 81 to 83 | CCOC(=O)COc1ccc(NC(=O)OC(C)(C)C)cc1OC

From a melting point compilation (Tetko et al.; mined from patent text by program, amines drawn as free bases though some values may be those of a salt)
